Experimental data from US20090076130A1, “COMPOUNDS FOR THE INHIBITION OF HISTONE DEACETYLASE” (NATUREWISE BIOTECH & MEDICALS CORPORATION, priority 2007, published 2009).

Legend:
rat C6 glioma cells = assay: Growth of rat C6 glioma cells (observation and cell counting); assay type: cell-based; conditions: 2.5, 5 and 10 μg/mL, 48 hours, cell density and cell counting vs control
Experimental: The cancer cell line, rat C6 glioma cells, was cultured in Dulbecco's modified Eagle's medium (DMEM; Gibco) supplemented with penicillin G, streptomycin sulphate, 0.5 mM of L-glutamine and 10% fetal bovine serum (FBS; Gibco) at 37° C., 5% CO2 and 95% relative humidity. For all experiments, the cells were seeded at a density of 3×10^5 per well in 6-well plates. After 24 hours, the cells were treated with different concentrations of the compound NBM-HD-1 (i.e., the compound of formula III depicted herein). After 48 hours, the cells were observed and counted. According to the results shown in FIG. 1, NBM-HD-1 can arrest the growth of rat C6 glioma cells. After the C6 glioma cells were incubated with 2.5 μg/mL (see FIG. 1(A)-b), 5 μg/mL (see FIG. 1(A)-c) and 10 μg/mL (see FIG. 1(A)-d) of NBM-HD-1 for 48 hours, the density of the cells reduced dramatically in comparison with that of control (see FIG. 1(A)-a).

acetylated histone H4 = assay: Western blotting of hyperacetylated histone H4 in C6 glioma cells; assay type: cell-based, rat
Experimental: Accumulation of hyperacetylated histone H4 was analyzed in the cell lysates by using Western Blotting and the antibody directed against acetylated histone H4 (Upstate). The C6 glioma cells were seeded at a density of 1×10^6 per 10 cm culture dish. After 24 hours, the cells were treated with 10 μg/mL of NBM-HD-1 or 4 mM sodium butyrate for several hours. The whole-cell lysates were prepared by using denaturing SDS sample buffer and then separated on 15% SDS-polyacrylamide gels. […] The amount of acetylated histones was hardly detectable in untreated C6 glioma cells. The amount of acetylated histone H4 of the cells treated with 4 mM sodium butyrate for 2 hours increased. Sodium butyrate was then removed from the culture medium. After 6 hours, the amount of acetylated histone H4 decreased. The accumulation of acetylated histone H4 increased in the cells treated with NBM-HD-1 for 2 hours. […] The highest histone acetylation appeared at 6 hours after the compound had been removed. […] Because NBM-HD-1 is more hydrophobic than sodium butyrate, NBM-HD-1 can be retained in the cells longer than sodium butyrate and continuously induce the acetylation of histone H4.

HDAC = HDAC Activity Assay Kit on nuclear extracts of treated C6 glioma cells; assay type: cell-based, rat; conditions: nuclear protein of C6 cells treated 24 hours, fluorometric substrate
Experimental: The C6 glioma cells were treated with different doses of NBM-HD-1 and sodium butyrate (SB). After 24 hours, the cells were harvested to extract the nuclear proteins by NucBuster™ Protein Extraction Kit (Novagen) as described by the manufacturer's instructions. These extracts were then used in HDAC Activity Assay Kit (Calbiochem) to analyze their HDAC (histone deacetylase) inhibition activities. The HDAC fluorometric substrate, which comprises an acetylated lysine side chain, was incubated with extracted nuclear protein first. Deacetylation of the substrate sensitized the substrate, so that, in the second step, treatment with the Lysine Developer produced a fluorophore. The fluorophore can easily be analyzed by using a fluorescence plate reader. […] Inhibition of HDAC has been implicated in the induction of differentiation in cancer cells. In this experiment, a well-known compound for HDAC inhibition, sodium butyrate, was used as a positive control.

[1] = tested on: human breast MCF-7 cancer cells; assay: Growth and morphology of breast cancer MCF-7 cells; assay type: cell-based
Experimental: The breast cancer MCF-7 cells, were cultured in Dulbecco's modified Eagle's medium (DMEM; Gibco) supplemented with penicillin G, streptomycin sulphate, 0.5 mM of L-glutamine and 10% fetal bovine serum (FBS; Gibco) at 37° C., 5% CO2 and 95% relative humidity. The cells were seeded at a density of 3×10^5 per well of 6-well plates. After 24 hours, the cells were treated with different concentrations of compound NBM-HD-1 and 4 mM sodium butyrate being used as the positive control. The cells were observed after 48 hours and counted after 96 hours. […] In FIG. 8(A), after the cells were incubated with 2.5 μg/mL (FIG. 8(A)-b), 5 μg/mL (FIG. 8(A)-c) and 10 μg/mL (FIG. 8(A)-d) of NBM-HD-1 for 48 hours, the density of MCF-7 cells reduced dramatically in comparison with that of the control group (FIG. 8(A)-a). The morphology of the MCF-7 cells in the experimental group changed in comparison with that in the control group. […] The results of the cell counting (FIG. 8(B)) indicate that, similar to sodium butyrate, NBM-HD-1 inhibits cell growth.
MCF-7 cancer cells were seeded at a density of 3×10^5 per well in 6-well plates. After 24 hours, the cells were treated with different concentrations of compound NBM-HD-2 and 4 mM sodium butyrate being used as the positive control. The cells were observed and counted after 72 hours. […] In FIG. 13(A), after the cells were incubated with 2.5 μg/mL (FIG. 13(A)-c), 5 μg/mL (FIG. 13(A)-d), 7.5 μg/mL (FIG. 13(A)-e) and 10 μg/mL (FIG. 13(A)-f) of NBM-HD-2 for 72 hours, the density of MCF-7 cells reduced dramatically in comparison with that of the control group (FIG. 13(A)-a). The morphology of the MCF-7 cells in the experimental group changed in comparison with that in the control group.
MCF-7 cancer cells were seeded at a density of 3×10^5 per well of 6-well plates. After 24 hours, the cells were treated with different concentrations of compound NBM-HD-3 and 4 mM sodium butyrate, which was being used as the positive control. The cells were observed and counted after 72 hours. […] In FIG. 14(A), after the cells were incubated with 2.5 μg/mL (FIG. 14(A)-c), 5 μg/mL (FIG. 14(A)-d), 7.5 μg/mL (FIG. 14(A)-e) and 10 μg/mL (FIG. 14(A)-f) of NBM-HD-3 for 72 hours, the density of MCF-7 cells reduced dramatically in comparison with that of the control group (FIG. 14(A)-a). The morphology of the MCF-7 cells in the experimental group changed in comparison with that in the control group. […] The results of the cell counting (FIG. 14(B)) indicate that, similar to sodium butyrate, NBM-HD-3 inhibits cell growth.

## COc1cc2c(c(OC)c1CCC(C)(C)O)C(=O)C[C@@H](c1ccc(OC)c(OC)c1C/C=C(\C)CCCC(C)(C)O)O2 [NBM-HD-1]
Rat C6 glioma cells
  growth of C6 glioma cells: can inhibit the growth of C6 glioma cells in a dose-dependent manner
Acetylated histone H4; 10 μg/mL NBM-HD-1 or 4 mM sodium butyrate, 2 hours
  accumulation of hyperacetylated histone H4: can increase the accumulation of hyperacetylated histone H4
Acetylated histone H4; 10 μg/mL, 2 hours treatment
  time of highest histone acetylation after removal of the compound: 6 h
Acetylated histone H4; after 2 hours treatment and removal from the culture medium, up to 6 hours
  amount of acetylated histone H4 after removal of the compound: increased over time
HDAC
  HDAC activity: significantly inhibits HDAC activity
[1]; 2.5, 5, 10 μg/mL, 48 hours
  morphology of MCF-7 cancer cells: change their morphology
[1]; NBM-HD-1 2.5, 5, 10 μg/mL or 4 mM sodium butyrate, observed after 48 hours, counted after 96 hours
  growth of MCF-7 cancer cells: can inhibit the growth of MCF-7 cancer cells in a dose-dependent manner
